The target in the assay is T1, recombinant human KLK5 (Homo sapiens, UniProt Q9Y337).
T1 construct: purchased Novoprotein or R&D Systems C415 or 1108-SE
T1 sequence (Q9Y337 23-293): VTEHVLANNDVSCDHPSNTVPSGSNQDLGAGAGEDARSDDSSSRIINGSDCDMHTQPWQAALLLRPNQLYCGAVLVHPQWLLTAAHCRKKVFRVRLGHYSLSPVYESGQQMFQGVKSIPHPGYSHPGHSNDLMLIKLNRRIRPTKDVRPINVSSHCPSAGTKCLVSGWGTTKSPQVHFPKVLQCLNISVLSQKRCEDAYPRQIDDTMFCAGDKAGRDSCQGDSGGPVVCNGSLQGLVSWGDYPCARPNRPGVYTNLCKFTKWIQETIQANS
The assay can be described thus: Kallikrein (KLK) 5 enzymatic assay (Boc-VPR-AMC fluorogenic substrate). It is filed as biochemical. Conditions: recombinant human KLK5 0.1 μg/well, Boc-VPR-AMC 100 μM, pH 7.5, room temperature, 1% DMSO; tested a minimum of three times. Put shortly:
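Fluorogenic rate assay at pH 7.5 (0.1 M NaH2PO4, 1% DMSO, room temperature), run at least three times per compound. Compound was premixed with 0.1 μg/well recombinant human KLK5 before adding 100 μM Boc-VPR-AMC; AMC release was read at ex 380/em 460 nm, and IC50 derived from inhibition of rate vs DMSO control.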

For `CC(C(=O)O)c1ccccc1OCc1nn(C2CCOC2)c2ccc(-c3cccc4c(N)nccc34)cc12` (stereo not drawn) [Compound 241f, 2-(2-((5-(1-aminoisoquinolin-5-yl)-1-(tetrahydrofuran-3-yl)-1H-indazol-3-yl)methoxy)phenyl)propanoic acid], the IC50 is under 1 µM.

Take `CC(C(=O)O)c1ccccc1OCc1nn(C2CCOC2)c2ccc(-c3ccc4ccnc(N)c4c3)cc12` (stereo not drawn) [Compound 242b, 2-(2-((5-(1-aminoisoquinolin-7-yl)-1-(tetrahydrofuran-3-yl)-1H-indazol-3-yl)methoxy)phenyl)propanoic acid]: the concentration for half-maximal inhibition (IC50) was under 1 µM.

Take `Nc1nccc2c(-c3ccc4c(c3)c(COc3ccccc3CC(=O)O)nn4[C@H]3CCOC3)cccc12` [Compound 243h, (S)-2-(2-((5-(1-aminoisoquinolin-5-yl)-1-(tetrahydrofuran-3-yl)-1H-indazol-3-yl)methoxy)phenyl)acetic acid]: the half-maximal inhibitory concentration (IC50) was under 1 µM.

Turning to `Nc1nccc2ccc(-c3ccc4c(c3)c(COc3ccccc3CC(=O)O)nn4[C@H]3CCOC3)cc12` [Compound 244b, (S)-2-(2-((5-(1-aminoisoquinolin-7-yl)-1-(tetrahydrofuran-3-yl)-1H-indazol-3-yl)methoxy)phenyl)acetic acid], the IC50 is under 1 µM.

As for `Nc1nccc2c(-c3ccc4c(c3)c(COc3ccccc3CC(=O)O)nn4[C@@H]3CCOC3)cccc12` [Compound 245h, (R)-2-(2-((5-(1-aminoisoquinolin-5-yl)-1-(tetrahydrofuran-3-yl)-1H-indazol-3-yl)methoxy)phenyl)acetic acid], the concentration for half-maximal inhibition (IC50) is under 1 µM.

On to `Nc1nccc2ccc(-c3ccc4c(c3)c(COc3ccccc3CC(=O)O)nn4[C@@H]3CCOC3)cc12` [Compound 246b, (R)-2-(2-((5-(1-aminoisoquinolin-7-yl)-1-(tetrahydrofuran-3-yl)-1H-indazol-3-yl)methoxy)phenyl)acetic acid], for which the half-inhibitory concentration (IC50) was under 1 µM.

Regarding `Cc1cccc(OCc2nn(C3CCOC3)c3ccc(-c4cccc5c(N)nccc45)cc23)c1CC(=O)O` (stereo not drawn) [Compound 247c, 2-(2-((5-(1-aminoisoquinolin-5-yl)-1-(tetrahydrofuran-3-yl)-1H-indazol-3-yl)methoxy)-6-methylphenyl)acetic acid], the IC50 was under 1 µM.

For `Cc1cccc(OCc2nn(C3CCOC3)c3ccc(-c4ccc5ccnc(N)c5c4)cc23)c1CC(=O)O` (stereo not drawn) [Compound 248b, 2-(2-((5-(1-aminoisoquinolin-7-yl)-1-(tetrahydrofuran-3-yl)-1H-indazol-3-yl)methoxy)-6-methylphenyl)acetic acid], the half-maximal inhibitory concentration (IC50) was under 1 µM.

As to `Nc1nccc2c(-c3ccc4c(c3)c(COc3ccccc3CC(=O)O)nn4C3CCOC3)cccc12` (stereo not drawn) [Compound 249b, 2-(2-((5-(1-aminoisoquinolin-5-yl)-1-(tetrahydrofuran-3-yl)-1H-indazol-3-yl)methoxy)phenyl)acetic acid], the half-maximal inhibitory concentration (IC50) is under 1 µM.

`Nc1nccc2ccc(-c3ccc4c(c3)c(COc3ccccc3CC(=O)O)nn4C3CCOC3)cc12` (stereo not drawn) [Compound 250b, 2-(2-((5-(1-aminoisoquinolin-7-yl)-1-(tetrahydrofuran-3-yl)-1H-indazol-3-yl)methoxy)phenyl)acetic acid]: the half-maximal inhibitory concentration (IC50) was under 1 µM.

For the compound `Nc1nccc2c(-c3ccc4c(c3)c(COc3ccccc3CC(=O)O)nn4CC3CC3)cccc12` [Compound 251c, 2-(2-((5-(1-aminoisoquinolin-5-yl)-1-(cyclopropylmethyl)-1H-indazol-3-yl)methoxy)phenyl)acetic acid], the IC50 is under 1 µM.

In the case of `Nc1nccc2c(-c3ccc4c(c3)c(COc3ccccc3CC(=O)O)nn4CC3CCC3)cccc12` [Compound 252h, 2-(2-((5-(1-aminoisoquinolin-5-yl)-1-(cyclobutylmethyl)-1H-indazol-3-yl)methoxy)phenyl)acetic acid], the IC50 is under 1 µM.

With `Nc1nccc2ccc(-c3ccc4c(c3)c(COc3ccccc3CC(=O)O)nn4CC3CCC3)cc12` [Compound 253b, 2-(2-((5-(1-aminoisoquinolin-7-yl)-1-(cyclobutylmethyl)-1H-indazol-3-yl)methoxy)phenyl)acetic acid], the half-maximal inhibitory concentration (IC50) is under 1 µM.

Turning to `N=C(N)c1cccc(-c2ccc3c(c2)c(COc2ccccc2CC(=O)O)nn3CC2CCC2)c1` [Compound 254c, 2-(2-((5-(3-carbamimidoylphenyl)-1-(cyclobutylmethyl)-1H-indazol-3-yl)methoxy)phenyl)acetic acid], the half-maximal inhibitory concentration (IC50) is under 1 µM.

With `COc1c(C(=N)N)cccc1-c1ccc2c(c1)c(COc1ccccc1CC(=O)O)nn2CC1CCC1` [Compound 255d, 2-(2-((5-(3-carbamimidoyl-2-methoxyphenyl)-1-(cyclobutylmethyl)-1H-indazol-3-yl)methoxy)phenyl)acetic acid], the IC50 is under 1 µM.

Consider `Nc1nccc2c(-c3cc(-c4ccccc4)c4c(c3)C(Oc3ccccc3CC(=O)O)CC4)cccc12` (stereo not drawn) [Compound 256f, 2-(2-((6-(1-aminoisoquinolin-5-yl)-4-phenyl-2,3-dihydro-1H-inden-1-yl)oxy)phenyl)acetic acid], for which the IC50 was 1 to 10 µM.

On to `Nc1nccc2c(-c3cc(C4CC4)c4c(c3)C(Oc3ccccc3CC(=O)O)CC4)cccc12` (stereo not drawn) [Compound 257b, 2-(2-((6-(1-aminoisoquinolin-5-yl)-4-cyclopropyl-2,3-dihydro-1H-inden-1-yl)oxy)phenyl)acetic acid], for which the IC50 is under 1 µM.

On to `Nc1nccc2c(-c3cc(Cl)c4c(c3)C(Oc3ccccc3CC(=O)O)CC4)cccc12` (stereo not drawn) [Compound 258a, 2-(2-((6-(1-aminoisoquinolin-5-yl)-4-chloro-2,3-dihydro-1H-inden-1-yl)oxy)phenyl)acetic acid], for which the IC50 was under 1 µM.

Take `Cc1cccc(O[C@@H]2CCc3ccc(-c4cccc5c(N)nccc45)cc32)c1CC(=O)O` [Compound 259c, (R)-2-(2-((6-(1-aminoisoquinolin-5-yl)-2,3-dihydro-1H-inden-1-yl)oxy)-6-methylphenyl)acetic acid]: the IC50 is under 1 µM.

Consider `Cc1cccc(O[C@@H]2CCc3ccc(-c4ccc5ccnc(N)c5c4)cc32)c1CC(=O)O` [Compound 260b, (R)-2-(2-((6-(1-aminoisoquinolin-7-yl)-2,3-dihydro-1H-inden-1-yl)oxy)-6-methylphenyl)acetic acid], for which the concentration for half-maximal inhibition (IC50) is under 1 µM.

For `Nc1nccc2c(-c3cc(-c4ccoc4)c4c(c3)C(Oc3ccccc3CC(=O)O)CC4)cccc12` (stereo not drawn) [Compound 261b, 2-(2-((6-(1-aminoisoquinolin-5-yl)-4-(furan-3-yl)-2,3-dihydro-1H-inden-1-yl)oxy)phenyl)acetic acid], the IC50 is under 1 µM.

As for `CC(C)n1nc(COc2ccccc2CC(=O)O)c2cc(-c3cccc(C(=N)N)c3O)ccc21` [Compound 262e, 2-(2-((5-(3-carbamimidoyl-2-hydroxyphenyl)-1-isopropyl-1H-indazol-3-yl)methoxy)phenyl)acetic acid], the half-inhibitory concentration (IC50) was under 1 µM.

For the compound `COc1c(C(=N)N)cccc1-c1ccc2c(c1)c(COc1ccccc1CC(=O)O)nn2C1CCCC1` [Compound 263d, 2-(2-((5-(3-carbamimidoyl-2-methoxyphenyl)-1-cyclopentyl-1H-indazol-3-yl)methoxy)phenyl)acetic acid], the IC50 was under 1 µM.

`COc1c(C(=N)N)cccc1-c1ccc2c(c1)c(COc1ccccc1CC(=O)O)nn2C1CCOC1` (stereo not drawn) [Compound 264d, 2-(2-((5-(3-carbamimidoyl-2-methoxyphenyl)-1-(tetrahydrofuran-3-yl)-1H-indazol-3-yl)methoxy)phenyl)acetic acid]: the IC50 is under 1 µM.

The IC50 is the concentration that inhibits the measured activity by half.

For the origin of these results see US20240239752A1, “BICYCLIC HETEROAROMATIC INHIBITORS OF KLK5” (BioCryst Pharmaceuticals, Inc., priority 2021, published 2024).
